In US20230295234A1, “ANTIMICROBIAL PEPTIDOMIMETICS” (SPEXIS AG, priority 2020, published 2023):
Peptide text beside a SMILES is read from it.

How the values were obtained:
[1] = tested on: Escherichia coli ATCC 25922; conditions: ATCC 25922
Summary of the method: (§1)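 Peptides were made up as 1 mg/mL stocks in sterile water. Colonies in 0.85% saline were set to 0.5 McFarland, then diluted in cation-adjusted Mueller-Hinton II broth to about 5×10^5 CFU/mL. Inoculum was combined with two-fold serial peptide dilutions in water containing 0.002% (final) polysorbate 80.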

[2] = tested on: Escherichia coli MCR-1 Af 45; conditions: MCR-1 Af 45
Summary of the method: as §1

[3] = tested on: Klebsiella pneumoniae SSI3010; conditions: SSI3010
Summary of the method: as §1

[4] = tested on: human red blood cells (hRBC); experiment: Hemolysis of human red blood cells; assay type: cell-based; conditions: red cells of human, 1 h
Summary of the method: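 Percent hemolysis is OD540 of peptide-treated supernatant relative to water-lysed cells. Each peptide was tested at 200 μg/mL against 20% (v/v) washed human erythrocytes. Incubation was 1 h at 37 °C, 300 rpm.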

SMILES	Escherichia coli ATCC 25922 MIC [1] [µg/mL]	Escherichia coli MCR-1 Af 45 MIC [2] [µg/mL]	Klebsiella pneumoniae SSI3010 MIC [3] [µg/mL]	Hemolysis at 0.2 g/L [4] [%]
CC[C@H](C)[C@H](NC(=O)[C@@H]1C[C@@H](N)CN1C(=O)[C@@H](NC(=O)[C@@H]1CCCN1C(=O)[C@H](CCCCN)NC(=O)[C@@H](N)CCCCN)C(C)C)C(=O)N[C@@H](CCCNC(=N)N)C(=O)N[C@@H](Cc1ccc(O)cc1)C(=O)N[C@@H]1C(=O)N[C@@H](CC(N)=O)C(=O)N[C@@H](CCCNC(=N)N)C(=O)N[C@@H](CCN)C(=O)N[C@@H]([C@@H](C)O)C(=O)N[C@H](CCN)C(=O)N[C@@H](CCCCN)C(=O)N[C@H](C(=O)N[C@@H](CCN)C(=O)N[C@@H](CCCNC(=N)N)C(=O)N[C@@H](Cc2ccc(O)cc2)C(=O)O)CSSC1(C)C [Example 115, Lys-Lys-Pro-Val-Pro((4R)NH2)-Ile-Arg-Tyr-Pen-Asn-Arg-^Dab-Thr-^DDab-Lys-Cys-Dab-Arg-Tyr] (HELM PEPTIDE1{K.K.P.V.[N[C@@H]1C[C@@H](C(=O)[*:2])N([*:1])C1].I.R.Y.[Pen].N.R.[Dab].T.[NCC[C@@H](N[*:1])C(=O)[*:2]].K.C.[Dab].R.Y}$PEPTIDE1,PEPTIDE1,9:R3-16:R3$$$V2.0)	0.0625	0.125	0.25	0
CC[C@H](C)[C@H](NC(=O)[C@@H](NC(=O)[C@@H]1C[C@@H](O)CN1C(=O)[C@@H](NC(=O)[C@@H]1C[C@@H](O)CN1C(=O)[C@H](CCCCN)NC(=O)[C@@H](N)CCCCN)C(C)C)[C@@H](C)CC)C(=O)N[C@@H](Cc1ccc(O)cc1)C(=O)N[C@@H]1C(=O)N[C@@H](CC(N)=O)C(=O)N[C@@H](CCCNC(=N)N)C(=O)N[C@@H](CCN)C(=O)N[C@@H]([C@@H](C)O)C(=O)N[C@H](CCN)C(=O)N[C@@H](CCCCN)C(=O)N[C@H](C(=O)N[C@@H](CCN)C(=O)N[C@@H](CCCNC(=N)N)C(=O)N[C@@H](Cc2ccc(O)cc2)C(=O)O)CSSC1(C)C [Example 116, Lys-Lys-Hyp-Val-Hyp-Ile-Ile-Tyr-Pen-Asn-Arg-Dab-Thr-^DDab-Lys-Cys-Dab-Arg-Tyr] (HELM PEPTIDE1{K.K.[Hyp].V.[Hyp].I.I.Y.[Pen].N.R.[Dab].T.[NCC[C@@H](N[*:1])C(=O)[*:2]].K.C.[Dab].R.Y}$PEPTIDE1,PEPTIDE1,9:R3-16:R3$$$V2.0)	0.0625	0.0625	0.125	0
CC[C@H](C)[C@H](NC(=O)[C@@H](NC(=O)[C@@H]1C[C@@H](O)CN1C(=O)[C@@H](NC(=O)[C@@H]1C[C@@H](O)CN1C(=O)[C@H](CCCCN)NC(=O)[C@@H](N)CCCCN)C(C)C)[C@@H](C)CC)C(=O)N[C@@H](Cc1ccc(O)cc1)C(=O)N[C@H]1CSSC[C@@H](C(=O)N[C@@H](CCN)C(=O)N[C@@H](CCCNC(=N)N)C(=O)N[C@@H](Cc2ccc(O)cc2)C(=O)O)NC(=O)[C@H](CCCCN)NC(=O)[C@@H](CCN)NC(=O)[C@H]([C@@H](C)O)NC(=O)[C@H](CCN)NC(=O)[C@H](CCCNC(=N)N)NC(=O)[C@H](CC(N)=O)NC1=O [Example 117, Lys-Lys-Hyp-Val-Hyp-Ile-Ile-Tyr-Cys-Asn-Arg-Dab-Thr-^DDab-Lys-Cys-Dab-Arg-Tyr] (HELM PEPTIDE1{K.K.[Hyp].V.[Hyp].I.I.Y.C.N.R.[Dab].T.[NCC[C@@H](N[*:1])C(=O)[*:2]].K.C.[Dab].R.Y}$PEPTIDE1,PEPTIDE1,9:R3-16:R3$$$V2.0)	0.03125	0.0625	0.125	0
CC[C@H](C)[C@H](NC(=O)[C@@H]1C[C@@H](O)CN1C(=O)[C@@H](NC(=O)[C@@H]1CCCN1C(=O)[C@H](CCCCN)NC(=O)[C@@H](N)CCCCN)C(C)C)C(=O)N[C@H](C(=O)N[C@@H](Cc1ccc(O)cc1)C(=O)N[C@@H]1C(=O)N[C@@H](CC(N)=O)C(=O)N[C@@H](CCCNC(=N)N)C(=O)N[C@@H](CCN)C(=O)N[C@@H]([C@@H](C)O)C(=O)N[C@H](CCN)C(=O)N[C@@H](CCCCN)C(=O)N[C@H](C(=O)N[C@@H](CCN)C(=O)N[C@@H](CCCNC(=N)N)C(=O)N[C@@H](Cc2ccc(O)cc2)C(=O)O)CSSC1(C)C)[C@@H](C)O [Example 118, Lys-Lys-Pro-Val-Hyp-Ile-Thr-Tyr-Pen-Asn-Arg-Dab-Thr-^DDab-Lys-Cys-Dab-Arg-Tyr] (HELM PEPTIDE1{K.K.P.V.[Hyp].I.T.Y.[Pen].N.R.[Dab].T.[NCC[C@@H](N[*:1])C(=O)[*:2]].K.C.[Dab].R.Y}$PEPTIDE1,PEPTIDE1,9:R3-16:R3$$$V2.0)	0.0625	0.0625	0.125	0
CC[C@H](C)[C@H](NC(=O)[C@@H]1C[C@@H](O)CN1C(=O)[C@@H](NC(=O)[C@@H]1CCCN1C(=O)[C@H](CCCCN)NC(=O)[C@@H](N)CCCCN)C(C)C)C(=O)N[C@H](C(=O)N[C@@H](Cc1ccc(O)cc1)C(=O)N[C@H]1CSSC[C@@H](C(=O)N[C@@H](CCN)C(=O)N[C@@H](CCCNC(=N)N)C(=O)N[C@@H](Cc2ccc(O)cc2)C(=O)O)NC(=O)[C@H](CCCCN)NC(=O)[C@@H](CCN)NC(=O)[C@H]([C@@H](C)O)NC(=O)[C@H](CCN)NC(=O)[C@H](CCCNC(=N)N)NC(=O)[C@H](CC(N)=O)NC1=O)[C@@H](C)O [Example 119, Lys-Lys-Pro-Val-Hyp-Ile-Thr-Tyr-Cys-Asn-Arg-Dab-Thr-^DDab-Lys-Cys-Dab-Arg-Tyr] (HELM PEPTIDE1{K.K.P.V.[Hyp].I.T.Y.C.N.R.[Dab].T.[NCC[C@@H](N[*:1])C(=O)[*:2]].K.C.[Dab].R.Y}$PEPTIDE1,PEPTIDE1,9:R3-16:R3$$$V2.0)	0.03125	0.03125	0.0625	1
CC[C@H](C)[C@H](NC(=O)[C@@H]1C[C@@H](O)CN1C(=O)[C@@H](NC(=O)[C@@H]1C[C@@H](O)CN1C(=O)[C@H](CCCCN)NC(=O)[C@@H](N)CCCCN)C(C)C)C(=O)N[C@H](C(=O)N[C@@H](Cc1ccc(O)cc1)C(=O)N[C@@H]1C(=O)N[C@@H](CC(N)=O)C(=O)N[C@@H](CCCNC(=N)N)C(=O)N[C@@H](CCN)C(=O)N[C@@H]([C@@H](C)O)C(=O)N[C@H](CCN)C(=O)N[C@@H](CCCCN)C(=O)N[C@H](C(=O)N[C@@H](CCN)C(=O)N[C@@H](CCCNC(=N)N)C(=O)N[C@@H](Cc2ccc(O)cc2)C(=O)O)CSSC1(C)C)[C@@H](C)O [Example 120, Lys-Lys-Hyp-Val-Hyp-Ile-Thr-Tyr-Pen-Asn-Arg-Dab-Thr-^DDab-Lys-Cys-Dab-Arg-Tyr] (HELM PEPTIDE1{K.K.[Hyp].V.[Hyp].I.T.Y.[Pen].N.R.[Dab].T.[NCC[C@@H](N[*:1])C(=O)[*:2]].K.C.[Dab].R.Y}$PEPTIDE1,PEPTIDE1,9:R3-16:R3$$$V2.0)	0.0625	0.125	0.125	0
CC[C@H](C)[C@H](NC(=O)[C@@H]1C[C@@H](O)CN1C(=O)[C@@H](NC(=O)[C@@H]1C[C@@H](O)CN1C(=O)[C@H](CCCCN)NC(=O)[C@@H](N)CCCCN)C(C)C)C(=O)N[C@H](C(=O)N[C@@H](Cc1ccc(O)cc1)C(=O)N[C@H]1CSSC[C@@H](C(=O)N[C@@H](CCN)C(=O)N[C@@H](CCCNC(=N)N)C(=O)N[C@@H](Cc2ccc(O)cc2)C(=O)O)NC(=O)[C@H](CCCCN)NC(=O)[C@@H](CCN)NC(=O)[C@H]([C@@H](C)O)NC(=O)[C@H](CCN)NC(=O)[C@H](CCCNC(=N)N)NC(=O)[C@H](CC(N)=O)NC1=O)[C@@H](C)O [Example 121, Lys-Lys-Hyp-Val-Hyp-Ile-Thr-Tyr-Cys-Asn-Arg-Dab-Thr-^DDab-Lys-Cys-Dab-Arg-Tyr] (HELM PEPTIDE1{K.K.[Hyp].V.[Hyp].I.T.Y.C.N.R.[Dab].T.[NCC[C@@H](N[*:1])C(=O)[*:2]].K.C.[Dab].R.Y}$PEPTIDE1,PEPTIDE1,9:R3-16:R3$$$V2.0)	0.03125	0.0625	0.125	0
CC[C@H](C)[C@H](NC(=O)[C@@H]1C[C@@H](O)CN1C(=O)[C@@H](NC(=O)[C@@H]1C[C@@H](O)CN1C(=O)[C@H](CCCCN)NC(=O)[C@@H](N)CCCCN)C(C)C)C(=O)N[C@H](C(=O)N[C@@H](Cc1ccc(O)cc1)C(=O)N[C@@H]1C(=O)N[C@@H](Cc2c[nH]cn2)C(=O)N[C@@H](CCCNC(=N)N)C(=O)N[C@@H](CCN)C(=O)N[C@@H]([C@@H](C)O)C(=O)N[C@H](CCN)C(=O)N[C@@H](CCCCN)C(=O)N[C@H](C(=O)N[C@@H](CCN)C(=O)N[C@@H](CCCNC(=N)N)C(=O)N[C@@H](Cc2ccc(O)cc2)C(=O)O)CSSC1(C)C)[C@@H](C)O [Example 122, Lys-Lys-Hyp-Val-Hyp-Ile-Thr-Tyr-Pen-His-Arg-Dab-Thr-^DDab-Lys-Cys-Dab-Arg-Tyr] (HELM PEPTIDE1{K.K.[Hyp].V.[Hyp].I.T.Y.[Pen].H.R.[Dab].T.[NCC[C@@H](N[*:1])C(=O)[*:2]].K.C.[Dab].R.Y}$PEPTIDE1,PEPTIDE1,9:R3-16:R3$$$V2.0)	0.0625	0.125	0.125	0
